From patent US20140296484A1, “Cyclin Based Inhibitors of CDK2 and CDK4” (University of South Carolina, priority 2013, published 2014)
Values joined by “and” are separate entries in the source; they are usually repeats but may differ in a detail not shown here. Equal entries are not always repeated. Where two headings read alike, the source gives them in different places. Where a SMILES comes first, the peptide text is derived from it. Where no end group is shown, it is not given here. [ ]: non-standard residue; d: D form. The star is where a group is joined. X5 = Cc1nc(C(=O)*)nn1-c1cc(Cl)cc(Cl)c1; Ala(cPent) = N[C@@H](CC1CCCC1)C(=O)O; X1 = Cc1nc(C(=O)*)nn1-c1ccc(Cl)cc1; X2 = O=C(c1ccc(-c2ccc(Cl)cc2)o1)*; 3Pal = N[C@@H](Cc1cccnc1)C(=O)O; 2Thi = N[C@@H](Cc1cccs1)C(=O)O; 3Thi = N[C@@H](Cc1ccsc1)C(=O)O; Cba = N[C@@H](CC1CCC1)C(=O)O; Picolinoyl = O=C(c1ccccn1)*; Bz = O=C(c1ccccc1)*

Columns and labels:
CDK4/Cyclin D1 [1] = target: T1, CDK4/Cyclin D1 (Homo sapiens, UniProt P24385); test: In vitro kinase assay, 32P filter capture with GST-Rb substrate; format: biochemical; settings: for IC50: kinase assay
CDK2/cyclin A = CDK2/cyclin A (Homo sapiens, UniProt P20248); test: Fluorescence polarization (FP) competitive binding assay
Method: (§1) Once the compounds were characterized, their binding affinities were tested by FP assay.

[2] = as above; settings: Table 20; read-out: CDK2/Cyclin A IC050
Method: (§2) In order to assess the contribution of the PLA H-bond acceptor, analogous compounds were made in each series and activities for the 4-chloro and 3,5-dichloro analog were evaluated in each context.
(§3) Several additional analogs were synthesized in addition to the 3,5 dichloro and 4-chlorophenyl analogs. In addition to determining their inhibition of CDK2/cyclin A, the availability of the CDK4/cyclin D1 binding assay was exploited to develop SAR for both kinases.
as §1

CDK4/Cyclin D1 [3] = target: T1, CDK4/Cyclin D1; test: as above
Method: as §2, §3, §1

CDK2/Cyclin A2 = CDK2/Cyclin A2 (Homo sapiens, UniProt P20248); test: In vitro kinase assay, 32P filter capture with GST-Rb substrate; format: biochemical
[4] = test system: retinoblastoma (Rb)-positive tumor cells; settings: cited from earlier work
[5] = test system: Colo-205 human colon carcinoma xenografts; settings: oral administration to mice bearing Colo-205 xenografts; cited from earlier work
36 other protein kinases = settings: cited from earlier work
[6] = Table 10, Scaffold III N-caps on the peptide link, read-out: IC50 CDK2/A2
[7] = competitive binding (FP) assay, read-out: CDK2/Cyclin A IC50
[8] = competitive binding (FP) assay, read-out: CDK4/Cyclin D1 IC50
[9] = Table 15, read-out: CDK2/Cyclin D1 IC50

T1 sequence (P24385 whole entry): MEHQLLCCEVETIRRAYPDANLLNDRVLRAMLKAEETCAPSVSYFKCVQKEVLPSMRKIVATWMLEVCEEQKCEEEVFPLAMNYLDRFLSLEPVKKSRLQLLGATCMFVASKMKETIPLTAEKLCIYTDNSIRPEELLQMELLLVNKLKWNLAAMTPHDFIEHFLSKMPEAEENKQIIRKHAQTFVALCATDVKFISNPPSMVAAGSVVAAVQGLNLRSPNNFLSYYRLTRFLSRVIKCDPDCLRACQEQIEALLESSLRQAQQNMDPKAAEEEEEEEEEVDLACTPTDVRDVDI
T1 sequence (P11802 whole entry partner): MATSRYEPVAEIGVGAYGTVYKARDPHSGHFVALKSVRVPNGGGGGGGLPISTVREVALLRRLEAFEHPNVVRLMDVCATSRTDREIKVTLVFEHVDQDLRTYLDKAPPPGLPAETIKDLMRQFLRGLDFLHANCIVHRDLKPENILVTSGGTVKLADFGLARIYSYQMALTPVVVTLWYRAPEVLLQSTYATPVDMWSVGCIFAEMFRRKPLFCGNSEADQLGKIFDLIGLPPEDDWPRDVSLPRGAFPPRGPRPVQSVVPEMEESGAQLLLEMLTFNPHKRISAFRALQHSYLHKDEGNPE

CC(C)C[C@H](NC(=O)[C@H](CCCNC(=N)N)NC(=O)[C@H](CCCNC(=N)N)NC(=O)[C@H](CCCCN)NC(=O)[C@H](C)NC(=O)[C@@H]1CCCN1)C(=O)N[C@@H](Cc1ccccc1)C(=O)NCC(N)=O
IC50 (CDK4/Cyclin D1 [1]): 6.7 µM

5919 (RLIF) [compound 5919]
IC50 (CDK2/cyclin A; [6]): 16.7 µM

5920 (RLIF; also: OH in table column, meaning not given here) [compound 5920]
IC50 (CDK2/cyclin A; [6]): 5.86 µM

5921 (RLIF; also: C7H16N2 group attached) [compound 5921]
IC50 (CDK2/cyclin A; [6]): 6.04 µM and 6.6 µM

COc1ccccc1CC(CC(C)C)NC(=O)C(CCCCNC(=N)N)NC(=O)c1nc(C)n(-c2cc(Cl)cc(Cl)c2)n1 (single isomer, unassigned) [compound 5981]
IC50 (CDK2/cyclin A; [7]): > 180 µM
IC50 [2]: > 180 µM

CC[C@H](C)[C@H](NC(=O)[C@H](CC(C)C)NC(=O)[C@H](CCCNC(=N)N)NC(=O)c1ccccn1)C(=O)N[C@@H](Cc1ccccc1)C(=O)O [525 (RLIF form)] (Picolinoyl-RLIF-OH)
IC50 (CDK2/cyclin A; Table 11, value tagged (LIF), read-out: IC50 CDK2/A2 (LIF)): 94.3 ± 14.9 µM
IC50 (CDK4/Cyclin D1 [3]; Table 11, value tagged (LIF) (0321), read-out: IC50 CDK4/D1 (LIF) (0321)): 49 µM
IC50 (CDK4/Cyclin D1 [3]; Table 11, value tagged (LIF), read-out: IC50 CDK4/D1 (LIF)): 64 µM

CC[C@H](C)[C@H](NC(=O)[C@H](CC(C)C)NC(=O)[C@H](CCCNC(=N)N)NC(=O)[C@@H](N)CCCNC(N)=O)C(=O)N[C@@H](Cc1ccccc1)C(N)=O [CitRLIF, Cit-RLIF]
IC50 (CDK4/Cyclin D1 [1]): 179 µM

CC[C@H](C)[C@H](NC(=O)[C@H](CC(C)C)NC(=O)[C@H](CCCNC(=N)N)NC(=O)[C@H](CCCNC(=N)N)NC(=O)[C@H](CCCCN)NC(=O)[C@H](C)NC(=O)[C@@H](N)Cc1c[nH]cn1)C(=O)N[C@@H](Cc1cccs1)C(N)=O [HAKRRLIX2] (H-HAKRRLI[2Thi]-NH2)
IC50 (CDK2/Cyclin A2): 3.6 µM

CC[C@H](C)[C@H](NC(=O)[C@H](CC(C)C)NC(=O)[C@H](CCCNC(=N)N)NC(=O)[C@H](CCCNC(=N)N)NC(=O)[C@H](CCCCN)NC(=O)[C@H](C)NC(=O)[C@@H](N)Cc1c[nH]cn1)C(=O)N[C@@H](Cc1ccsc1)C(N)=O [HAKRRLIX3] (H-HAKRRLI[3Thi]-NH2)
IC50 (CDK2/Cyclin A2): 25 µM

CC[C@H](C)[C@H](NC(=O)[C@H](CC(C)C)NC(=O)[C@H](CCCNC(=N)N)NC(=O)[C@H](CCCNC(=N)N)NC(=O)[C@H](CCCCN)NC(=O)[C@H](C)NC(=O)[C@@H](N)Cc1c[nH]cn1)C(=O)N[C@@H](CC1CCC1)C(N)=O [HAKRRLIX4] (H-HAKRRLI[Cba]-NH2)
IC50 (CDK4/Cyclin D1 [1]): 100 µM
IC50 (CDK2/Cyclin A2): 25 µM

CC[C@H](C)[C@H](NC(=O)[C@H](CC(C)C)NC(=O)[C@H](CCCNC(=N)N)NC(=O)[C@H](CCCNC(=N)N)NC(=O)[C@H](CCCCN)NC(=O)[C@H](C)NC(=O)[C@@H](N)Cc1c[nH]cn1)C(=O)N[C@@H](CC1CCCC1)C(N)=O [HAKRRLIX5] (H-HAKRRLI[Ala(cPent)]-NH2)
IC50 (CDK4/Cyclin D1 [1]): 90 µM
IC50 (CDK2/Cyclin A2): 20 µM

CC[C@H](C)[C@H](NC(=O)[C@H](CC(C)C)NC(=O)[C@H](CCCNC(=N)N)NC(=O)[C@H](CCCNC(=N)N)NC(=O)[C@H](CCCCN)NC(=O)[C@H](C)NC(=O)[C@@H](N)Cc1c[nH]cn1)C(=O)N[C@@H](Cc1cccnc1)C(N)=O [HAKRRLIX7] (H-HAKRRLI[3Pal]-NH2)
IC50 (CDK2/Cyclin A2): 29 µM

N=C(N)NCCCC(NC(=O)c1ccccc1)C(=O)Nc1ccc2ccccc2c1 (stereo not shown) [N-(5-guanidino-1-(naphthalen-2-ylamino)-1-oxopentan-2-yl)benzamide]
binding in the FP assay (CDK2/cyclin A; cyclin not specified (Cyclin A and D1 expected)): weakly binding

CC(=O)c1c(C)c2cnc(Nc3ccc(N4CCNCC4)cn3)nc2n(C2CCCC2)c1=O [PD0332991]
antiproliferative activity [4]: potent antiproliferative agent
tumor response [5]: marked tumor regression
activity against 36 other protein kinases (36 other protein kinases): no activity

CC[C@H](C)[C@H](NC(=O)[C@H](CC(C)C)NC(=O)[C@H](CCCNC(N)=O)NC(=O)[C@@H](N)CCCNC(=N)N)C(=O)N[C@@H](Cc1ccccc1)C(N)=O [RCitLIF]
IC50 (CDK4/Cyclin D1 [1]): 179 µM

CC[C@H](C)[C@H](NC(=O)[C@H](CC(C)C)NC(=O)[C@H](CCCNC(=N)N)NC(=O)c1nc(C)n(-c2cc(Cl)cc(Cl)c2)n1)C(=O)NCc1cccc(Oc2ccccc2)c1 [SCCP10]
IC50 (CDK4/Cyclin D1 [1]): 8 µM

CC(C)C[C@@H](CC(=O)NCc1cccc(Oc2ccccc2)c1)NC(=O)[C@H](CCCNC(=N)N)NC(=O)[C@@H](N)CCCNC(=N)N [SCCP 5624, Arg-Arg-β-homoleucyl-3-phenoxybenzylamid]
selectivity (CDK4/Cyclin D1 [1]; CDK4/cyclin D1 vs CDK2/cyclin A): selective for CDK4/cyclin D1

CC[C@H](C)[C@H](NC(=O)[C@H](CC(C)C)NC(=O)[C@H](CCCNC(=N)N)NC(=O)c1ccc(-c2ccc(Cl)cc2)o1)C(=O)N[C@@H](Cc1ccccc1)C(=O)O [SCCP 5770] (X2-RLIF-OH)
fold less potent relative to the triazole N capping group (CDK4/Cyclin D1 [3]; CDK4/cyclin D1 context): 25 fold

CC[C@H](C)[C@H](NC(=O)[C@H](CC(C)C)NC(=O)[C@H](CCCNC(=N)N)NC(=O)c1nc(C)n(-c2cc(Cl)cc(Cl)c2)n1)C(=O)N[C@@H](Cc1ccccc1)C(=O)O [SCCP 5773, 1-(3,5-dichlorophenyl)-5-methyl-1H-1,2,4-triazole-3-carbonyl-RLIF] (X5-RLIF-OH)
IC50 (CDK2/cyclin A; [7]): 12 µM
IC50 (CDK4/Cyclin D1 [3]; [8]): 27 µM

CC[C@H](C)[C@H](NC(=O)[C@H](CC(C)C)NC(=O)[C@H](CCCNC(=N)N)NC(=O)c1nc(C)n(-c2ccc(Cl)cc2)n1)C(=O)N[C@@H](Cc1ccccc1)C(=O)O [SCCP 5774] (X1-RLIF-OH)
IC50 (CDK2/cyclin A; [7]): 25 µM
IC50 (CDK4/Cyclin D1 [3]; [8]): 11 µM

CCN(CCc1ccccc1)C(=O)CC(CC(C)C)NC(=O)[C@H](CCCNC(=N)N)NC(=O)c1nc(C)n(-c2cc(Cl)cc(Cl)c2)n1 (stereo partly shown) [SCCP 6003]
IC50 (CDK2/cyclin A; [7]): 85.6 µM

Cc1nc(C(=O)N[C@@H](CCCNC(=N)N)C(=O)NC(CC(C)C)C(=O)NCCCc2ccccc2)nn1-c1cc(Cl)cc(Cl)c1 (stereo partly shown) [SCCP 6004]
IC50 (CDK2/cyclin A; [7]): 57.7 µM

CC[C@H](C)[C@H](NC(=O)[C@H](CC(C)C)NC(=O)[C@H](CCCNC(=N)N)NC(=O)c1ccccc1)C(=O)N[C@@H](Cc1ccccc1)C(N)=O [compound 5857] (Bz-RLIF-NH2)
IC50 (CDK2/cyclin A): > 100 µM
IC50 (CDK4/Cyclin D1 [3]): 100 to 180 µM

Cc1nc(C(=O)NC(CCCCNC(=N)N)C(=O)NC(CC(C)C)c2ccccc2OCC(C)C)nn1-c1cc(Cl)cc(Cl)c1 (stereo not shown) [compound 5978]
IC50 (CDK2/cyclin A; [7]): > 180 µM
IC50 [2]: > 180 µM

CCCOc1ccc(C)cc1C(CC(C)C)NC(=O)C(CCCCNC(=N)N)NC(=O)c1nc(C)n(-c2cc(Cl)cc(Cl)c2)n1 (stereo not shown) [compound 5980]
IC50 (CDK2/cyclin A; [7]): > 180 µM
IC50 [2]: > 180 µM

COc1ccccc1CC(CC(C)C)NC(=O)C(CCCCNC(=N)N)NC(=O)c1nc(C)n(-c2cc(Cl)cc(Cl)c2)n1 (stereo not shown) [compound 5982]
IC50 (CDK2/cyclin A; [7]): > 180 µM
IC50 [2]: > 180 µM

CCOc1ccccc1C(CC(C)C)NC(=O)C(CCCCNC(=N)N)NC(=O)c1nc(C)n(-c2cc(Cl)cc(Cl)c2)n1 (stereo not shown) [compound 5984]
IC50 (CDK2/cyclin A; [7]): > 180 µM
IC50 [2]: > 180 µM

COc1ccccc1C(CC(C)C)NC(=O)C(CCCCNC(=N)N)NC(=O)c1nc(C)n(-c2cc(Cl)cc(Cl)c2)n1 (stereo not shown) [compound 5985]
IC50 (CDK2/cyclin A; [7]): > 180 µM
IC50 [2]: > 180 µM

Cc1nc(C(=O)N[C@@H](CCCNC(=N)N)C(=O)NC(CC(=O)NCc2ccccc2)CC(C)C)nn1-c1cc(Cl)cc(Cl)c1 (stereo partly shown) [compound 6000]
IC50 (CDK2/cyclin A; [7]): > 180 µM
IC50 (CDK4/Cyclin D1 [3]; [9]): > 180 µM

CCN(Cc1ccccc1)C(=O)CC(CC(C)C)NC(=O)[C@H](CCCNC(=N)N)NC(=O)c1nc(C)n(-c2cc(Cl)cc(Cl)c2)n1 (stereo partly shown) [compound 6001]
IC50 (CDK2/cyclin A; [7]): > 180 µM
IC50 (CDK4/Cyclin D1 [3]; [9]): > 180 µM

Cc1nc(C(=O)N[C@@H](CCCNC(=N)N)C(=O)NC(CC(=O)NCCc2ccccc2)CC(C)C)nn1-c1cc(Cl)cc(Cl)c1 (stereo partly shown) [compound 6002]
IC50 (CDK2/cyclin A; [7]): > 180 µM
IC50 (CDK4/Cyclin D1 [3]; [9]): > 180 µM

CCN(CCc1ccccc1)C(=O)CC(CC(C)C)NC(=O)[C@H](CCCNC(=N)N)NC(=O)c1nc(C)n(-c2cc(Cl)cc(Cl)c2)n1 (stereo partly shown) [compound 6003]
IC50 (CDK4/Cyclin D1 [3]; [9]): > 180 µM

Cc1nc(C(=O)NC(CCCNC(=N)N)C(=O)NC(CC(C)C)C(=O)NCCCc2ccccc2)nn1-c1cc(Cl)cc(Cl)c1 (stereo not shown) [compound 6004]
IC50 (CDK2/cyclin A; [7]): 57.7 µM
IC50 (CDK4/Cyclin D1 [3]; [9]): > 180 µM

CCN(CCCc1ccccc1)C(=O)C(CC(C)C)NC(=O)[C@H](CCCNC(=N)N)NC(=O)c1nc(C)n(-c2cc(Cl)cc(Cl)c2)n1 (stereo partly shown) [compound 6005]
IC50 (CDK2/cyclin A; [7]): > 180 µM
IC50 (CDK4/Cyclin D1 [3]; [9]): > 180 µM

H-HAKTRLIF-NH2
IC50 (CDK4/Cyclin D1 [1]): 25 µM
IC50 (CDK2/Cyclin A2): 50 µM

H-SAKRALFGM-NH2
IC50 (CDK4/Cyclin D1 [1]): 68 µM

H-SAKRNLFGM-NH2
IC50 (CDK4/Cyclin D1 [1]): 146 µM
